Results reported in article PMC12301332, “Biased antagonism of a series of bicyclic CXCR2 intracellular allosteric modulators” (Frontiers in Pharmacology, 2025).

Key:
[1] = biological target: T1, CXCR2 (Homo sapiens, UniProt P25025); experiment: NanoBRET-based G protein activation inhibition assay (REGA-SIGN Gαi1 dissociation) in HEK293A.CXCR2 cells; format: cell-based; settings: normalized to Imax of navarixin = 100%, n = 3
T1 construct: expressed in transfected cells
T1 sequence (P25025 1-360): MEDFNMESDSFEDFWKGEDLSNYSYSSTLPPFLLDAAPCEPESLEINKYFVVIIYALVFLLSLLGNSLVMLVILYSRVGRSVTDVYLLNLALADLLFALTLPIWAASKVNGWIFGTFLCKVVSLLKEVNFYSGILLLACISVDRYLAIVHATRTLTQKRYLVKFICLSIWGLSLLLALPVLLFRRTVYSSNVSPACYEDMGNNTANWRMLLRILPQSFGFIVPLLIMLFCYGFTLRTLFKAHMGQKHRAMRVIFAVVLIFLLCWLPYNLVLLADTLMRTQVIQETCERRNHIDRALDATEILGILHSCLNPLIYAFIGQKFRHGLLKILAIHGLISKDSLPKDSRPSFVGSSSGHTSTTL
Description: Cells were trypsinized and resuspended at 3 × 10^5 cell/mL in the growth medium, whereafter they were incubated for 2 hours at RT. Cells were transfected in suspension using FuGENE® HD Transfection Reagent at a 3:1 reagent to DNA ratio in Opti-MEMTM I Reduced-Serum Medium, with the final DNA concentration of 1 μg/μL. The transfection mixture was incubated for 10 min at RT before adding it to the cell suspension. Transfected cells were seeded at 3.0 × 10^4 cells/well in a white, clear, flat-bottom 96-well plate coated with 100 μg/mL poly-D-lysin ([…], Sigma Aldrich) and incubated for 48 h at 37°C and 5% CO2. […] (2023)]. Following the 48-h incubation period, cells were washed with the assay buffer. Compounds were serially diluted in 1:500 Nano-Glo® Vivazine^TM working solution (#N2581, Promega), and 90 μL of compound/Vivazine mix was added, followed by incubation for 45 min at 37°C and 5% CO2. Plates were transferred to the FLIPR Penta system (Molecular Devices) at 37°C, and all steps onward are automated and performed by the FLIPR Penta system. After a 10-min equilibration period, the baseline BRET signal was determined by five consecutive reads followed by automatic administration of 10 μL of 10× ligand (Table 1) to the cell plate. Changes in the BRET signal was measured for 10 min, with each read spaced by 2.5 s. […] BRET ratios were extracted from ScreenWorks software (Molecular Devices) and represent the ratio between the acceptor emission of […]2 or mNG (G protein or β-arrestin recruitment, respectively) and NLuc donor emission. The basal BRET ratio was defined as the average BRET ratio of the five consecutive readings preceding ligand addition. Changes in BRET values post ligand administration (ΔBRET) were calculated for each well as a percentage difference to the previously defined basal BRET ratio. Average ΔBRET values were baseline corrected by subtracting the average negative control BRET ratio (unstimulated condition). […] AUCs were normalized to the positive control (stimulated condition); whereafter, dose-response curves were fitted to log (inhibitor) vs response (three parameters) in GraphPad 10.2.0 (GraphPad Software). […] Calculation 1: calculation of the BRET signal. • 1. […] NC correctedΔBRET=Δ[…]. • 4. a. Neg AUC of NC correctedΔBRET=Gα activation read out. b. Pos AUC of NC correctedΔBRET=β-arrestin recruitment.

[2] = biological target: T1, CXCR2; experiment: NanoBRET β-arrestin1 recruitment inhibition assay (NanoLux) in HEK293A cells; format: cell-based; settings: normalized to Imax of navarixin = 100%, n = 3
Description: Cells were trypsinized and resuspended at 3 × 10^5 cell/mL in the growth medium, whereafter they were incubated for 2 hours at RT. Cells were transfected in suspension using FuGENE® HD Transfection Reagent at a 3:1 reagent to DNA ratio in Opti-MEMTM I Reduced-Serum Medium, with the final DNA concentration of 1 μg/μL. The transfection mixture was incubated for 10 min at RT before adding it to the cell suspension. Transfected cells were seeded at 3.0 × 10^4 cells/well in a white, clear, flat-bottom 96-well plate coated with 100 μg/mL poly-D-lysin ([…], Sigma Aldrich) and incubated for 48 h at 37°C and 5% CO2. HEK293A cells were transiently co-transfected with plasmids encoding β-arrestin1 protein tagged with NLuc (donor) and CXCR2 protein tagged with mNeonGreen (mNG) acceptor in a 1:10 donor to acceptor ratio, as described previously ([Luís et al., 2022]). All subsequent steps are identical to those in “NanoBRET-based G protein activation inhibition assay,” which are described above. Measurements were acquired using a 440- to 480-nm donor emission filter (#0200-6179, Molecular Devices) and a 515- to 575-nm acceptor emission filter (#0200-6203, Molecular Devices) BRET ratios were extracted from ScreenWorks software (Molecular Devices) and represent the ratio between the acceptor emission of […]2 or mNG (G protein or β-arrestin recruitment, respectively) and NLuc donor emission. The basal BRET ratio was defined as the average BRET ratio of the five consecutive readings preceding ligand addition. Changes in BRET values post ligand administration (ΔBRET) were calculated for each well as a percentage difference to the previously defined basal BRET ratio. Average ΔBRET values were baseline corrected by subtracting the average negative control BRET ratio (unstimulated condition). […] AUCs were normalized to the positive control (stimulated condition); whereafter, dose-response curves were fitted to log (inhibitor) vs response (three parameters) in GraphPad 10.2.0 (GraphPad Software). […] Calculation 1: calculation of the BRET signal. • 1. […] NC correctedΔBRET=Δ[…]. • 4. a. Neg AUC of NC correctedΔBRET=Gα activation read out. b. Pos AUC of NC correctedΔBRET=β-arrestin recruitment.

[3] = biological target: T1, CXCR2; experiment: Bias analysis (bias plot, bias index) of β-arrestin1 recruitment inhibition versus Gαi1 activation inhibition, navarixin as reference; format: cell-based; settings: all ELR+ chemokines; navarixin as reference antagonist
Description: For signaling bias calculations, constraints were set to bottom values equal to zero. The calculated top values generated by nonlinear fit log (inhibitor) vs response (three parameters) in GraphPad 10.2.1 were taken as Imax. […] The bias index values were calculated, as is shown in calculation 2. Briefly, log(Imax/IC50) was calculated. […] Finally, the bias index was calculated by subtracting the ∆log (Imax/IC50) of the tested compound from the stated reference pathway from that of the pathway of interest. […] The statistical significance of H1 was evaluated using a one-sample T-test with Benjamini-Hochberg correction applied for multiple comparisons, whereas H2 was assessed using a one-way ANOVA followed by Tukey’s test.
Bias index=∆LogImax/IC50P1:β−arr1−∆LogImax/IC50P2:Gai1 .
Bias plots are equimolar comparisons between the two pathways of interest.

[4] = biological target: T1, CXCR2; set-up: method as in Boon et al., 2024; settings: agonist concentration used in NanoBRET assays; ref Boon et al., 2024; cited from earlier work
[5] = biological target: T1, CXCR2; set-up: method as in Boon et al., 2024; settings: agonist concentration used in NanoBRET assays; ref Boon et al., 2024; cited from earlier work; remark: listed apart in the source

Molecule: C[C@H](CO)Nc1nc(SCc2cccc(Cl)c2F)nc2[nH]c(=O)sc12 [AZ10397767, reference compound]
- Imax Gαi1 (maximum observed inhibitory effect) ([1]; CXCL1 at EC80): 100%
- Imax Gαi1 (maximum observed inhibitory effect) ([1]; CXCL2 at EC80): 100%
- Imax Gαi1 (maximum observed inhibitory effect) ([1]; CXCL3 at EC80): 98.8%
- Imax Gαi1 (maximum observed inhibitory effect) ([1]; CXCL5 at EC80): 95.7%
- Imax Gαi1 (maximum observed inhibitory effect) ([1]; CXCL6 at EC80): 100%
- Imax Gαi1 (maximum observed inhibitory effect) ([1]; CXCL7 at EC80): 100%
- Imax Gαi1 (maximum observed inhibitory effect) ([1]; CXCL8 at EC80): 98.5%
- Imax βarr1 (maximum observed inhibitory effect) ([2]; CXCL1 at EC80): 100%
- Imax βarr1 (maximum observed inhibitory effect) ([2]; CXCL2 at EC80): 100%
- Imax βarr1 (maximum observed inhibitory effect) ([2]; CXCL3 at EC80): 100%
- Imax βarr1 (maximum observed inhibitory effect) ([2]; CXCL5 at EC80): 100%
- Imax βarr1 (maximum observed inhibitory effect) ([2]; CXCL6 at EC80): 100%
- Imax βarr1 (maximum observed inhibitory effect) ([2]; CXCL7 at EC80): 100%
- Imax βarr1 (maximum observed inhibitory effect) ([2]; CXCL8 at EC80): 100%
- bias profile (bias plot), β-arrestin1 recruitment inhibition vs Gαi1 activation inhibition [3]: bias toward the inhibition of β-arrestin1 recruitment

Molecule: CXCL1: recombinant human ELR+ chemokine, CXCR2 ligand (PeproTech)
- G-protein EC80 [4]: 3.20 nM
- β-arrestin EC80 [5]: 59.18 nM

Molecule: CXCL2: recombinant human ELR+ chemokine, CXCR2 ligand (PeproTech)
- G-protein EC80 [4]: 2.15 nM
- β-arrestin EC80 [5]: 147.8 nM

Molecule: CXCL3: recombinant human ELR+ chemokine, CXCR2 ligand (PeproTech)
- G-protein EC80 [4]: 8.92 nM
- β-arrestin EC80 [5]: 100.10 nM

Molecule: CXCL5: recombinant human ELR+ chemokine, CXCR2 ligand (PeproTech)
- G-protein EC80 [4]: 5.16 nM
- β-arrestin EC80 [5]: 86.19 nM

Molecule: CXCL6: recombinant human ELR+ chemokine, CXCR2 ligand (PeproTech)
- G-protein EC80 [4]: 17.12 nM
- β-arrestin EC80 [5]: 168.00 nM

Molecule: CXCL8: recombinant human ELR+ chemokine, CXCR2 ligand (PeproTech)
- G-protein EC80 [4]: 4.16 nM
- β-arrestin EC80 [5]: 17.29 nM

B1: CXCL7: recombinant human ELR+ chemokine, CXCR2 ligand (PeproTech) (protein, UniProt P02775 59-128, looked up)
Neutrophil-activating peptide …: AELRCMCIKTTSGIHPKNIQSLEVIGKGTHCNQVEVIATLKDGRKICLDPDAPRIKKIVQKKLAGDESAD
modifications: Neutrophil-activating peptide 2
- G-protein EC80 [4]: 4.09 nM
- β-arrestin EC80 [5]: 100.70 nM
